In patent US20260306639A1, “DEGRADER FOR DECOMPOSING CMET PROTEIN, AND PHARMACEUTICAL COMPOSITION COMPRISING SAME” (INNOCURE THERAPEUTICS, INC., priority 2022, published 2026):

Key:
[1] = system: c-MET; assay: c-MET protein degradation (Simple Western), MKN-45 cells; format: cell-based, human; details: MKN-45 gastric cancer cells, c-MET overexpressing; 24 hours
Experimental: (§1) In order to assess the resolution of the compound of the present invention for c-MET expressed in cells, cells were dispensed in a 12-well plate at a concentration of 2×10^5 cells/well, and then gastric cancer cell lines were treated with samples for 24 hours and lung cancer cell lines were treated for 48 hours. Cell lysates were collected using a scraper on ice, centrifuged at 4° C. 15,000 rpm for 30 min to obtain a protein-containing supernatant. Protein expression was then measured using the Simple Western Automated Western Blot System Abby instrument using 3 μg of protein for each sample. SDS and heat-induced denaturation proteins were separated by molecular weight, attached to capillary, reacted with anti-c-MET or anti-GAPDH antibodies, which are primary antibodies, and then reacted with HRP-conjugated secondary antibodies, and analyzed the protein expression signal with compass software. Protein expression was normalized based on the expression value of GAPDH, and protein development in each sample was measured as a percentage (%) based on 100% of samples treated with 0.1% DMSO carriers, and DC50 (concentration of a compound where 50% protein inhibition is achieved) was calculated from the change in protein expression amount due to compound treatment.

[2] = system: c-MET; assay: c-MET protein degradation (Simple Western), EBC-1 cells; format: cell-based, human; details: EBC-1 lung cancer cells, c-MET overexpressing; 48 hours
Experimental: as §1

Structure (SMILES)	DC50 [1] [nM]	DC50 [2] [nM]
Cc1nn(C2CCC(=O)NC2=O)c(=O)c2cc(N3CCN(C(=O)CCCN4CCC(COc5cnc(-c6cccc(Cn7nc(-c8cccc(C#N)c8)ccc7=O)c6)nc5)CC4)CC3)ccc12 (stereo not shown) [ICT-0001228]	< 100	–
Cc1nn(C2CCC(=O)NC2=O)c(=O)c2cc(N3CCC(N4CCN(C(=O)CN5CCC(COc6cnc(-c7cccc(Cn8nc(-c9cccc(C#N)c9)ccc8=O)c7)nc6)CC5)CC4)CC3)ccc12 (stereo not shown) [ICT-0001233]	< 100	–
Cc1nn(C2CCC(=O)NC2=O)c(=O)c2cc(N3CCC(CN4CCN(C(=O)CN5CCC(COc6cnc(-c7cccc(Cn8nc(-c9cccc(C#N)c9)ccc8=O)c7)nc6)CC5)CC4)CC3)ccc12 (stereo not shown) [ICT-0001234]	> 1000	–
Cc1nn(C2CCC(=O)NC2=O)c(=O)c2ccc(N3CCN(CC4CN(C(=O)CN5CCC(COc6cnc(-c7cccc(Cn8nc(-c9cccc(C#N)c9)ccc8=O)c7)nc6)CC5)C4)CC3)cc12 (stereo not shown) [ICT-0001235]	< 100	–
Cc1nn(C2CCC(=O)NC2=O)c(=O)c2ccc(N3CCC(CN4CCN(C(=O)CN5CCC(COc6cnc(-c7cccc(Cn8nc(-c9cccc(C#N)c9)ccc8=O)c7)nc6)CC5)CC4)CC3)cc12 (stereo not shown) [ICT-0001236]	< 100	–
Cc1nn(C2CCC(=O)NC2=O)c(=O)c2ccc(N3CCN(C4CCN(C(=O)CN5CCC(COc6cnc(-c7cccc(Cn8nc(-c9cccc(C#N)c9)ccc8=O)c7)nc6)CC5)CC4)CC3)cc12 (stereo not shown) [ICT-0001237]	< 100	–
Cc1nn(C2CCC(=O)NC2=O)c(=O)c2cc(N3CCC(C(=O)NCCCNC(=O)CN4CCC(COc5cnc(-c6cccc(Cn7nc(-c8cccc(C#N)c8)ccc7=O)c6)nc5)CC4)CC3)ccc12 (stereo not shown) [ICT-0001238]	> 1000	–
Cc1nn(C2CCC(=O)NC2=O)c(=O)c2cc(N3CCC(CN4CCN(CC(=O)N5CCC(COc6cnc(-c7cccc(Cn8nc(-c9cccc(C#N)c9)ccc8=O)c7)nc6)CC5)CC4)CC3)ccc12 (stereo not shown) [ICT-0001239]	< 100	–
Cc1nn(C2CCC(=O)NC2=O)c(=O)c2ccc(N3CCN(c4ccc(NCC(=O)N5CCC(COc6cnc(-c7cccc(Cn8nc(-c9cccc(C#N)c9)ccc8=O)c7)nc6)CC5)cc4)CC3)cc12 (stereo not shown) [ICT-0001240, 3-(1-(3-(5-((1-((4-(4-(2-(2,6-dioxopiperidin-3-yl)-4-methyl-1-oxo-1,2-dihydropthalazine-6-yl)piperazine-1-yl)phenyl)glycyl)piperidine-4-il)methoxy)pyrimidine-2-yl)benzyl)6-oxo-1,6-dihydropyridazine-3-yl)benzonitrile]	100 to 1000	–
Cc1nn(C2CCC(=O)NC2=O)c(=O)c2ccc(N3CCN(C(=O)CCCCN4CCC(COc5cnc(-c6cccc(Cn7nc(-c8cccc(C#N)c8)ccc7=O)c6)nc5)CC4)CC3)cc12 (stereo not shown) [ICT-0001250]	100 to 1000	–
Cc1nn(C2CCC(=O)NC2=O)c(=O)c2cc(N3CCN(C(=O)CCCCN4CCC(COc5cnc(-c6cccc(Cn7nc(-c8cccc(C#N)c8)ccc7=O)c6)nc5)CC4)CC3)ccc12 (stereo not shown) [ICT-0001251]	< 100	–
N#Cc1cccc(-c2ccc(=O)n(Cc3cccc(-c4ncc(OCC5CCN(CCCCC(=O)N6CCN(c7ccc8c(=O)n(C9CCC(=O)NC9=O)ncc8c7)CC6)CC5)cn4)c3)n2)c1 (stereo not shown) [ICT-0001252]	< 100	–
Cc1nn(C2CCC(=O)NC2=O)c(=O)c2ccc(N3CCN(CC4CN(CC(=O)N5CCC(COc6cnc(-c7cccc(Cn8nc(-c9cccc(C#N)c9)ccc8=O)c7)nc6)CC5)C4)CC3)cc12 (stereo not shown) [ICT-0001253]	< 100	–
Cc1nn(C2CCC(=O)NC2=O)c(=O)c2ccc(N3CCN(C[C@H]4CCN(CC(=O)N5CCC(COc6cnc(-c7cccc(Cn8nc(-c9cccc(C#N)c9)ccc8=O)c7)nc6)CC5)CO4)CC3)cc12 (stereo partly shown) [ICT-0001254]	100 to 1000	–
Cc1nn(C2CCC(=O)NC2=O)c(=O)c2ccc(N3CCN(C4CCN(CC(=O)N5CCC(COc6cnc(-c7cccc(Cn8nc(-c9cccc(C#N)c9)ccc8=O)c7)nc6)CC5)CC4)CC3)cc12 (stereo not shown) [ICT-0001255]	< 100	–
Cc1nn(C2CCC(=O)NC2=O)c(=O)c2ccc(N3CCN(CC4CCN(CC(=O)N5CCC(COc6cnc(-c7cccc(Cn8nc(-c9cccc(C#N)c9)ccc8=O)c7)nc6)CC5)CC4)CC3)cc12 (stereo not shown) [ICT-0001256]	< 100	–
Cc1nn(C2CCC(=O)NC2=O)c(=O)c2ccc(N3CCN(C(=O)C4CN(CC(=O)N5CCC(COc6cnc(-c7cccc(Cn8nc(-c9cccc(C#N)c9)ccc8=O)c7)nc6)CC5)C4)CC3)cc12 (stereo not shown) [ICT-0001257]	< 100	100 to 1000
Cc1nn(C2CCC(=O)NC2=O)c(=O)c2ccc(N3CCN(C[C@@H]4CN(C(=O)CN5CCC(COc6cnc(-c7cccc(Cn8nc(-c9cccc(C#N)c9)ccc8=O)c7)nc6)CC5)CCO4)CC3)cc12 (stereo partly shown) [ICT-0001258]	< 100	–
Cc1nn(C2CCC(=O)NC2=O)c(=O)c2cc(N3CCN(c4ccc(NCC(=O)N5CCC(COc6cnc(-c7cccc(Cn8nc(-c9cccc(C#N)c9)ccc8=O)c7)nc6)CC5)cc4)CC3)ccc12 (stereo not shown) [ICT-0001262, 3-(1-(3-(5-((1-((4-(4-(3-(2,6-dioxopiperidin-3-yl)-1-methyl-4-oxo-3,4-dihydropthalazine-6-yl)piperazine-1-yl)phenyl)glycy)piperidine-4-il)methoxy)pyrimidine-2-yl)benzyl)6-oxo-1,6-dihydropyridazine-3-yl)benzonitrile]	< 100	–
Cc1nn(C2CCC(=O)NC2=O)c(=O)c2cc(N3CCC(N4CCN(CC(=O)N5CCC(COc6cnc(-c7cccc(Cn8nc(-c9cccc(C#N)c9)ccc8=O)c7)nc6)CC5)CC4)CC3)ccc12 (stereo not shown) [ICT-0001270]	< 100	–
N#Cc1cccc(-c2ccc(=O)n(Cc3cccc(-c4ncc(OCC5CCN(CCN6CCN(c7ccc8c(=O)n(C9CCC(=O)NC9=O)ncc8c7)CC6)CC5)cn4)c3)n2)c1 (stereo not shown) [ICT-0001276, 3-(1-{[3-(5-{[1-(2-{4-[2-(2,6-dioxopiperidin-3-yl)-1-oxo-1,2-dihydropetalazine-6-yl]piperazine-1-il}ethyl)piperidine-4-il]methoxy}pyrimidine-2-yl)phenyl]methyl}-6-oxo-1,6-dihydropyridazine-3-yl)benzonitrile]	< 100	> 1000
N#Cc1cccc(-c2ccc(=O)n(Cc3cccc(-c4ncc(OCC5CCN(CC(=O)N6CCC(CN7CCN(c8ccc(NC9CCC(=O)NC9=O)cc8F)CC7)CC6)CC5)cn4)c3)n2)c1 (stereo not shown) [ICT-0001447, 3-(1-{[3-(5-{[1-(2-{4-[(4-{4-[(2,6-dioxopiperidin-3-yl)amino]-2-fluorophenyl}piperazine-1-yl)methyl]piperidine-1-yl}-2-oxoethyl)piperidine-4-yl]methoxy}pyrimidine-2-yl)phenyl]methyl}-6-oxo-1,6-dihydropyridazine-3-yl)benzonitrile]	–	< 100
N#Cc1cccc(-c2ccc(=O)n(Cc3cccc(-c4ncc(OCC5CCN(CC(=O)N6CCN(CC7CCN(c8ccc(NC9CCC(=O)NC9=O)cc8F)CC7)CC6)CC5)cn4)c3)n2)c1 (stereo not shown) [ICT-0001468, 3-(1-{[3-(5-{[1-(2-{4-[(1-{4-[(2,6-dioxopiperidin-3-yl)amino]-2-fluorophenyl}piperidine-4-yl)methyl]piperazine-1-yl}-2-oxoethyl)piperidine-4-yl]methoxy}pyrimidine-2-yl)phenyl]methyl}-6-oxo-1,6-dihydropyridazine-3-yl)benzonitrile]	–	< 100
